ChEMBL document CHEMBL2429725, “New chemotypes for wALADin1-like inhibitors of delta-aminolevulinic acid dehydratase from Wolbachia endobacteria” (Bioorg Med Chem Lett, 2013)
Active and inactive are the calls of the source. The rule behind the calls is not given here.

Assays:
Wolbachia [1] = assay: (§1) Inhibition of recombinant Wolbachia endobacteria ALADH using 5-ALA as substrate after 20 mins
[2] = biological target: T1, Delta-aminolevulinic acid dehydratase (Homo sapiens) (UniProt P13716); assay: (§2) Inhibition of human ALADH after 20 mins
T1 sequence (whole entry): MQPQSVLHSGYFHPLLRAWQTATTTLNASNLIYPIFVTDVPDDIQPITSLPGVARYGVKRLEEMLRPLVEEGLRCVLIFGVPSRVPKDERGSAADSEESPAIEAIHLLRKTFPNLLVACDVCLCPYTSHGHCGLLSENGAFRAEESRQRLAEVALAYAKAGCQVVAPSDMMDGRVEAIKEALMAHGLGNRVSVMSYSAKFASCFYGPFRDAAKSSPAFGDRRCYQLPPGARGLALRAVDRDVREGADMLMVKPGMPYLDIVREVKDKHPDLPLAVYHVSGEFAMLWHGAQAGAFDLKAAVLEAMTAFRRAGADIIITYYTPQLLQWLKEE

[3] = as §1
[4] = biological target: T2, Delta-aminolevulinic acid dehydratase (Homo sapiens, UniProt P13716); assay: as §2
T2 sequence (P13716 whole entry): T1 sequence (whole entry)

Wolbachia [5] = assay: Inhibition of recombinant Wolbachia endobacteria ALADH using 5-ALA as substrate after 20 mins relative to control
Wolbachia [6] = assay: Binding affinity to recombinant Wolbachia endobacteria assessed as change in melting temperature at 12.5 uM by thermal shift assay
Wolbachia [7] = assay: Non-competitive inhibition of recombinant Wolbachia endobacteria ALADH using 5-ALA as substrate
Wolbachia [8] = assay: Non-competitive inhibition of recombinant Wolbachia endobacteria ALADH using 5-ALA as substrate in presence of Mg2+
Wolbachia [9] = assay: Binding affinity to recombinant Wolbachia endobacteria assessed as change in melting temperature at 1.6 uM by thermal shift assay
Wolbachia [10] = assay: Binding affinity to recombinant Wolbachia endobacteria assessed as change in melting temperature at 6.25 uM by thermal shift assay
Wolbachia [11] = assay: Binding affinity to recombinant Wolbachia endobacteria assessed as change in melting temperature at 25 uM by thermal shift assay
Wolbachia [12] = assay: Binding affinity to recombinant Wolbachia endobacteria assessed as change in melting temperature at 100 uM by thermal shift assay
Wolbachia [13] = assay: Binding affinity to recombinant Wolbachia endobacteria assessed as change in melting temperature at 3.1 uM by thermal shift assay

| inhibition (Wolbachia [1]) | inhibition [2] | IC50 [3] | Compound | also measured |
| --- | --- | --- | --- | --- |
| inactive | inactive | – | CCn1c(CSc2nnc(-c3cccs3)n2Cc2ccccc2)nc2cc(C(=O)O)ccc21 | – |
| – | – | Not Active | O=C(O)c1c2c(nc3ccccc13)CCN(Cc1ccccc1)C2 | – |
| inactive | inactive | – | O=C(N[C@@H](Cc1ccccc1)C(=O)O)c1cccs1 | – |
| – | – | Not Active | O=C(O)c1c2c(nc3ccccc13)CCN(S(=O)(=O)c1ccccc1)C2 | – |
| – | – | Not Active | CC(C)(C)C(=O)N1CCc2nc3ccccc3c(C(=O)O)c2C1 | – |
| inactive | inactive | – | CCn1c(CSc2ccc(NC(C)=O)cc2)nc2cc(C(=O)O)ccc21 | – |
| – | – | – | O=C(O)c1ccc2c(c1)nc(CCNC(=O)c1cccs1)n2Cc1cccc(C(F)(F)F)c1 | IC50 ([3]; read-out: IC50): 11.1 µM; IC50 ([4]; read-out: IC50): 740 µM |
| – | – | Not Active | COc1ccc(S(=O)(=O)N2CCc3nc4ccccc4c(C(=O)O)c3C2)cc1 | – |
| – | – | – | O=C(O)c1cc(-c2ccc(Cl)cc2)cs1 | inhibition (Wolbachia [5]): > 30%; IC50 ([3]; read-out: IC50): 521 µM; IC50 ([4]; read-out: IC50): 85.3 µM |
| – | – | Not Active | O=C(O)c1c2c(nc3ccccc13)CCN(CC(O)c1ccccc1)C2 (stereo not given) | – |
| inactive | inactive | – | O=C(O)c1ccc2c(c1)n(CC1CCNC1)c(=O)n2Cc1ccc(F)cc1 (stereo not given) | – |
| – | – | Not Active | O=C(c1cccc(C(F)(F)F)c1)N1CCc2nc3ncccc3cc2C1 | – |
| – | – | Not Active | O=C(O)c1c2c(nc3ccccc13)CCN(CC(O)COc1ccccc1)C2 (stereo not given) | – |
| – | > 25% | – | O=C(O)c1ccc2c(c1)n(Cc1ncccn1)c(=O)n2Cc1ccc(F)cc1 | IC50 ([3]; read-out: IC50): > 1000 µM; IC50 ([4]; read-out: IC50): 119 µM |
| – | – | – | O=C(O)c1c2c(nc3ccccc13)CCN(C(=O)c1cccc(C(F)(F)F)c1)C2 | inhibition (Wolbachia [5]): > 30%; ΔTm (Wolbachia [6]): 2.8 °C; inhibition (Wolbachia [7]): Active; IC50 ([3]; read-out: IC50): 8.1 µM; inhibition (Wolbachia [8]): Active; ΔTm (Wolbachia [9]): 0.7 °C; ΔTm (Wolbachia [10]): 1.9 °C; ΔTm (Wolbachia [11]): 3 °C; ΔTm (Wolbachia [12]): 5.5 °C; IC50 [4]: Not Active; ΔTm (Wolbachia [13]): 1.2 °C |
| – | > 25% | – | O=C(O)c1ccc2c(c1)n(CCN1CCCC1)c(=O)n2Cc1ccc(F)cc1 | IC50 ([3]; read-out: IC50): 340 µM; IC50 ([4]; read-out: IC50): > 1000 µM |
| inactive | inactive | – | Cc1ccsc1C(=O)NCCc1ccc(C(=O)O)cc1 | – |
| – | – | – | O=C(O)c1cc(-c2ccc(Br)cc2)cs1 | inhibition (Wolbachia [5]): > 30%; IC50 ([3]; read-out: IC50): 299 µM; IC50 ([4]; read-out: IC50): 99.7 µM |
| inactive | inactive | – | Cn1c(CCNC(=O)c2cccs2)nc2cc([N+](=O)[O-])ccc21 | – |
| inactive | inactive | – | O=C(O)CCNC(=O)C(Cc1ccccc1)NC(=O)c1cccs1 (stereo not given) | – |
| inactive | inactive | – | CC(NC(=O)Cc1ccccc1C(=O)O)C1Nc2ccccc2N1 (stereo not given) | – |

| Compound | inhibition (Wolbachia [1]) | inhibition [2] | IC50 [3] | also measured |
| --- | --- | --- | --- | --- |
| CN1CCc2nc3ccccc3c(C(=O)O)c2C1 | – | – | Not Active | – |
| O=C(O)c1c2c(nc3ccccc13)CCNC2 | – | – | Not Active | – |
